Consider six compounds from patent publication EP0271271B1, “Pharmaceutical preparations” (BEECHAM GROUP PLC, priority 1986, dated 1988).

The test system of this test is conscious male spontaneously hypertensive rats (SHR). Put plainly: Systolic blood pressure by inflatable tail cuff in conscious spontaneously hypertensive rats. Type of test: in vivo. The method, then: Potentiation of the anti-hypertensive response to Compounds of formula (I) has been observed in conscious male spontaneously hypertensive rats (SHR) when the compounds were combined with the angiotensin I converting enzyme inhibitor enalapril. For the purpose of the experiment 36 rats were allotted at random to 4 groups, each of 9 rats. Systolic blood pressure (SBP) was measured non-invasively using an inflatable tail cuff technique as described in the aforementioned European Patent references. The protocol of the experiment was as follows: [table] […] The results were as shown in Table I. The protocol of the experiment for pinacidil was as follows: [table] […]

In the case of `CC(N/C(=N\C#N)Nc1ccncc1)C(C)(C)C` (stereo not shown) [Pinacidil, Nʺ-Cyano-N-4-pyridyl-Nʹ-1,2,2-trimethylpropylguanidine], the “% change (± s.e.m.) of SBP” value (Group 3: vehicle at 0 h, pinacidil 1 mg/kg po at 0.75 h, time 0.75 h (time of pinacidil dosing), initial SBP 269±4 mmHg) was “+4±1%”; the “% change (± s.e.m.) of SBP” value (Group 3: vehicle at 0 h, pinacidil 1 mg/kg po at 0.75 h, time 1.75 h, initial SBP 269±4 mmHg, n=8) is given as -33±5(n=8) %; the “% change (± s.e.m.) of SBP” value (Group 3: vehicle at 0 h, pinacidil 1 mg/kg po at 0.75 h, time 2.75 h, initial SBP 269±4 mmHg) is reported as -19±3%; the “% change (± s.e.m.) of SBP” value (Group 3: vehicle at 0 h, pinacidil 1 mg/kg po at 0.75 h, time 4.75 h, initial SBP 269±4 mmHg) was -9±3%.
Take `CC1(C)Oc2ccc(C#N)cc2[C@@H](N2CCCC2=O)[C@@H]1O` (relative stereo) [Compound 1, 6-cyano-3,4-dihydro-2,2-dimethyl-trans-4-(2-oxo-1-pyrrolidinyl)-2H-benzo[b]pyran-3-ol]: the “% change (± sem) of SBP” value was -2±2% (Group 3: vehicle at 0 h, Compound 1 0.3 mg/kg po at 0.75 h, time 0.75 h (time of compound dosing), initial SBP 262±3 mmHg); -43±2% (Group 3: vehicle at 0 h, Compound 1 0.3 mg/kg po at 0.75 h, time 1.75 h, initial SBP 262±3 mmHg); -21±2% (Group 3: vehicle at 0 h, Compound 1 0.3 mg/kg po at 0.75 h, time 2.75 h, initial SBP 262±3 mmHg); -15±3% (Group 3: vehicle at 0 h, Compound 1 0.3 mg/kg po at 0.75 h, time 4.75 h, initial SBP 262±3 mmHg).
As for `CC1(C)Oc2ccncc2[C@@H](N2CCCC2=O)[C@@H]1O` (relative stereo) [Compound 2, trans-3,4-dihydro-2,2-dimethyl-4-(2-oxopyrrolidin-1-yl)-2H-pyrano[3,2-c]pyridin-3-ol], the “SBP change (quantity not headed in table; as % change of Table I)” value was 1±2 (Compound 2 0.6 mg/kg po alone, time 0.75, time-0 value 244±6); -20±2 (Compound 2 0.6 mg/kg po alone, time 1.75, time-0 value 244±6); -12±3 (Compound 2 0.6 mg/kg po alone, time 2.75, time-0 value 244±6); -11±2 (Compound 2 0.6 mg/kg po alone, time 4.75, time-0 value 244±6).
On to `CCOC(=O)[C@H](CCc1ccccc1)N[C@@H](C)C(=O)N1CCC[C@H]1C(=O)O` [Enalapril], for which the “SBP change (quantity not headed in table; as % change of Table I)” value (Compound 2 experiment: Compound (A) 3 mg/kg po alone, time 0.75, time-0 value 247±3) is -9±1; the “SBP change (quantity not headed in table; as % change of Table I)” value (Compound 2 experiment: Compound (A) 3 mg/kg po alone, time 1.75, time-0 value 247±3) is -22±2; the “SBP change (quantity not headed in table; as % change of Table I)” value (Compound 2 experiment: Compound (A) 3 mg/kg po alone, time 2.75, time-0 value 247±3) is -14±3; the “SBP change (quantity not headed in table; as % change of Table I)” value (Compound 2 experiment: Compound (A) 3 mg/kg po alone, time 4.75, time-0 value 247±3) was -16±2; the “SBP change (quantity not headed in table; as % change of Table I)” value (Compound 3 experiment: Compound (A) 3 mg/kg po alone, time 0.75, time-0 value 254±4) is given as -8±2; the “SBP change (quantity not headed in table; as % change of Table I)” value (Compound 3 experiment: Compound (A) 3 mg/kg po alone, time 1.75, time-0 value 254±4) is on record as -10±3. Besides, the “SBP change (quantity not headed in table; as % change of Table I)” value is, setting by setting: (Compound 3 experiment: Compound (A) 3 mg/kg po alone, time 2.75, time-0 value 254±4) -12±4; (Compound 3 experiment: Compound (A) 3 mg/kg po alone, time 4.75, time-0 value 254±4) -21±3; (Compound 4 experiment: Compound (A) 3 mg/kg po alone, time 0.75, time-0 value 280±5) -4±2; (Compound 4 experiment: Compound (A) 3 mg/kg po alone, time 1.75, time-0 value 280±5) -9±2; (Compound 4 experiment: Compound (A) 3 mg/kg po alone, time 2.75, time-0 value 280±5) -12±3; (Compound 4 experiment: Compound (A) 3 mg/kg po alone, time 4.75, time-0 value 280±5) -14±2. The “% change (± sem) of SBP” value is, setting by setting: (Group 2: enalapril 3 mg/kg po at 0 h, vehicle at 0.75 h, time 0.75 h, initial SBP 257±3 mmHg) -8±2%; (Group 2: enalapril 3 mg/kg po at 0 h, vehicle at 0.75 h, time 1.75 h, initial SBP 257±3 mmHg) -11±4%; (Group 2: enalapril 3 mg/kg po at 0 h, vehicle at 0.75 h, time 2.75 h, initial SBP 257±3 mmHg) -15±2%; (Group 2: enalapril 3 mg/kg po at 0 h, vehicle at 0.75 h, time 4.75 h, initial SBP 257±3 mmHg, n=7) -17±2 (n=7) %. Also, the “% change (± s.e.m.) of SBP” value is given as -4±1% (Pinacidil experiment, Group 2: enalapril 3 mg/kg po at 0 h, vehicle at 0.75 h, time 0.75 h, initial SBP 274±6 mmHg); -14±3% (Pinacidil experiment, Group 2: enalapril 3 mg/kg po at 0 h, vehicle at 0.75 h, time 1.75 h, initial SBP 274±6 mmHg); -16±3% (Pinacidil experiment, Group 2: enalapril 3 mg/kg po at 0 h, vehicle at 0.75 h, time 2.75 h, initial SBP 274±6 mmHg); -17±3(n=8) % (Pinacidil experiment, Group 2: enalapril 3 mg/kg po at 0 h, vehicle at 0.75 h, time 4.75 h, initial SBP 274±6 mmHg, n=8).
For the compound `CC(=O)NC1c2cc(C#N)ccc2OC(C)(C)C1O` (stereo not drawn) [Compound 4, trans-4-N-acetylamino-6-cyano-3,4-dihydro-2,2-dimethyl-2H-benzo[b]pyran-3-ol], the “SBP change (quantity not headed in table; as % change of Table I)” value (Compound 4 0.15 mg/kg po alone, time 0.75, time-0 value 281±5) is listed as 0±2; the “SBP change (quantity not headed in table; as % change of Table I)” value (Compound 4 0.15 mg/kg po alone, time 1.75, time-0 value 281±5) was -26±4; the “SBP change (quantity not headed in table; as % change of Table I)” value (Compound 4 0.15 mg/kg po alone, time 2.75, time-0 value 281±5) is given as -23±4; the “SBP change (quantity not headed in table; as % change of Table I)” value (Compound 4 0.15 mg/kg po alone, time 4.75, time-0 value 281±5) was -13±2.
`CN1CCCN(C2c3cc(C#N)ccc3OC(C)(C)C2O)C1=O` (stereo not drawn) [Compound 3, 6-cyano-3,4-dihydro-2,2-dimethyl-trans-4-(N-3-methyltetrahydro-2-pyrimidone)-2H-benzo[b]pyran-3-ol]: the “SBP change (quantity not headed in table; as % change of Table I)” value reads like this: (Compound 3 2.0 mg/kg po alone, time 0.75, time-0 value 253±6) 0±3; (Compound 3 2.0 mg/kg po alone, time 1.75, time-0 value 253±6) -20±3; (Compound 3 2.0 mg/kg po alone, time 2.75, time-0 value 253±6) -22±3; (Compound 3 2.0 mg/kg po alone, time 4.75, time-0 value 253±6) -21±3.
